Columns and labels:
[1] = system: three prototypical strains (A/Brisbane/10/2007, A/Brisbane/59/2007, and B/Florida/4/2006); test: Indirect hemagglutination assay (IHA) of immunised mice sera, statements not split by strain; assay type: in vivo; conditions: for IHA titers induced by Fluarix vaccination: mice immunised twice with Fluarix + adjuvant, vs Fluarix alone (Example 3)
Experimental: (§1) Mice were injected by intramuscular route at day 0 and day 21 with: • NaCl, • 1 μg Fluarix® alone, • 1 μg Fluarix®+1 μg PBS-57/S, or • 1 μg Fluarix®+1 μg PBS-57/L.
(§2) Sera were collected at day 42 and reactivity with the three prototypical strains (A/Brisbane/10/2007, A/Brisbane/59/2007, and B/Florida/4/2006) of Fluarix® vaccine was assayed by measuring IHA titers for each of these strains (see FIG. 7).
(§3) Mice were injected by intramuscular route at day 0 and day 21 with: • nothing (naïve mice), • PBS, • 4 μg Agrippal® alone, • 8.9 μg Agrippal® alone, • 4 μg Agrippal®+1 μg PBS-57 in liposome formulation (PBS-57/L) or PBS-14 liposome formulation (PBS-14/L), or • 8.9 μg Agrippal®+1 μg PBS-57 in PEGylated form (PBS-57/S) or PBS-57/L or PBS-14/L.
(§4) Sera were collected at day 42 and reactivity with the three prototypical strains (H3 A/Brisbane/10/2007, H1 A/Brisbane/59/2007, and B/Florida/4/2006) of Agrippal® vaccine was assayed by measuring IHA titers for each of these strains (see FIG. 8).
Mice were injected by intramuscular route at day 0 with: • NaCl, • PBS-57/D alone, • PBS-57/L alone, • PBS-57/S alone, • 4 μg Agrippal® alone, • 8.9 μg Agrippal® alone, • 4 μg Agrippal®+1 μg PBS-57 in liposome formulation (PBS-57/L) or in pegylated form (PBS-57/S) or in DMSO (PBS-57/D), or • 8.9 μg Agrippal®+1 μg PBS-57/L or PBS-57/S or PBS-57/D.
Sera were collected at day 21 and reactivity with the three prototypical strains (H3 A/Brisbane/10/2007, H1 A/Brisbane/59/2007, and B/Florida/4/2006) of Agrippal® vaccine was assayed by measuring IHA titers for each of these strains (see FIG. 9).
Mice were injected by intramuscular route at day 0 with: • PBS, • 1 μg PBS-57 in DMSO (PBS-57/D) alone • 1 μg PBS-57 in PEGylated form (PBS-57/S) alone, • 1 μg PBS-57 in liposome formulation (PBS-57/L) alone, • 4 μg Agrippal® alone, • 8.9 μg Agrippal® alone, • 4 μg Agrippal®+1 μg PBS-57/D, PBS-57/S or PBS-57/L, or • 8.9 μg Agrippal®+1 μg PBS-57/D, PBS-57/S or PBS-57/L.
(§5) Agrippal® vaccine comprises a mixture of A/Brisbane/10/2007-like, A/Brisbane/59/2007-like, and B/Florida/4/2006-like strains.
Sera were collected at day 21 and reactivity with the three prototypical strains (H3 A/Brisbane/10/2007, H1 A/Brisbane/59/2007, and B/Florida/4/2006) of Agrippal® vaccine was assayed by measuring IHA titers for each of these strains (see FIG. 20).

[2] = system: IgG1, IgG2a and IgG2b; test: Detection of IgG1, IgG2a and IgG2b in mouse sera by ELISA after intramuscular Agrippal and adjuvants; assay type: in vivo, mice; conditions: for level of IgG1 in sera / level of IgG2a in sera / level of IgG2b in sera: 1, 4 or 8.9 μg Agrippal alone or + 1 μg adjuvant, ELISA; for level of IgG1 when the dose of Agrippal combined to the adjuvant was increased / level of IgG2a when the dose of Agrippal combined to the adjuvant was increased / level of IgG2b when the dose of Agrippal combined to the adjuvant was increased: Agrippal 1 to 8.9 μg + 1 μg adjuvant
Experimental: Mice were injected at day 0 and day 21 with: • PBS, • 1 μg Agrippal® alone, • 1 μg Agrippal®+1 μg PBS-57 in pegylated form or liposome formulation (PBS-57/S or PBS-57/L) or PBS-14 liposome formulation (PBS-14/L), • 4 μg Agrippal® alone, • 4 μg Agrippal®+1 μg PBS-57/S or PBS-57/L or PBS-14/L, • 8.9 μg Agrippal® alone, or • 8.9 μg Agrippal®+1 μg PBS-57/S or PBS-57/L or PBS-14/L.
Sera were collected at day 42 and the IgG1, IgG2a and IgG2b content of the sera was analysed by ELISA.
Mice were injected at day 0 with: • PBS, • 1 μg Agrippal® alone, • 1 μg Agrippal®+1 μg PBS-57 in pegylated form or liposome formulation (PBS-57/S or PBS-57/L) • 4 μg Agrippal® alone, • 4 μg Agrippal®+1 μg PBS-57/S or PBS-57/L, • 8.9 μg Agrippal® alone, or • 8.9 μg Agrippal®+1 μg PBS-57/S or PBS-57/L.
Sera were collected at day 21 and the IgG1 and IgG2b content of the sera was analysed by ELISA.

[3] = system: H3 A/Brisbane/10/2007; test: Indirect hemagglutination assay (IHA) of immunised mice sera, strain A/Brisbane/10/2007; assay type: in vivo; conditions: 1 μg Fluarix + 1 μg adjuvant i.m. day 0 and 21; sera day 42; vs Fluarix alone
Experimental: as §1
(§6) Fluarix® vaccine comprises a mixture of A/Brisbane/10/2007-like, A/Brisbane/59/2007-like, and B/Florida/4/2006-like strains.
as §2, §3, §5
Sera were collected at day 42 and reactivity with the three prototypical strains (H3 A/Brisbane/10/2007, H1 A/Brisbane/59/2007, and B/Florida/4/2006) of Agrippal® vaccine was assayed by measuring IHA titers for each of these strains (see FIG. 8). […]

[4] = system: H1 A/Brisbane/59/2007; test: Indirect hemagglutination assay (IHA) of immunised mice sera, strain A/Brisbane/59/2007; assay type: in vivo; conditions: 1 μg Fluarix + 1 μg adjuvant i.m. day 0 and 21; sera day 42; vs Fluarix alone
Experimental: as §1, §6, §2, §3, §5, §4

[5] = system: B/Florida/4/2006; test: Indirect hemagglutination assay (IHA) of immunised mice sera, strain B/Florida/4/2006; assay type: in vivo; conditions: 1 μg Fluarix + 1 μg adjuvant i.m. day 0 and 21; sera day 42; vs Fluarix alone
Experimental: as §1, §6, §2, §3, §5, §4

[6] = system: iNKT (Vβ11/Vα24+ cells) from adults PBMC; test: In vitro iNKT activation, adult PBMC; assay type: cell-based; conditions: 7 days culture with IL-2, 10 or 100 ng/ml, compared to 100 ng α-GalCer
Experimental: (§7) Adults PBMC and cord blood mononuclear cells (CBMC) were either non stimulated, or cultured in vitro with IL-2 alone or IL-2 combined with 100 ng α-GalCer or PBS-57/D or PBS-57/L (at 10 ng/ml or 100 ng/ml).
(§8) After 7 days of culture, activation of iNKT was determined by assessing the percentage of Vβ11/Vα24^+ cells amplified from PBMC or CBMC (FIGS. 13 and 14).

[7] = system: iNKT (Vβ11/Vα24+ cells) from cord blood mononuclear cells (CBMC); test: In vitro iNKT activation, cord blood mononuclear cells; assay type: cell-based; conditions: 7 days culture with IL-2, 10 or 100 ng/ml, compared to 100 ng α-GalCer
Experimental: as §7, §8

[8] = mice injected day 0 and day 21, sera day 42
[9] = two injections (day 0, 21), sera day 42
[10] = mice immunised twice (day 0, 21) with Agrippal + 1 μg adjuvant, sera day 42 (Example 4)
[11] = single injection day 0 of Agrippal + 1 μg adjuvant, sera day 21 (Example 5)
[12] = single injection day 0, sera day 21

Row | SMILES | IHA titers induced by Fluarix vaccination [1] | level of IgG1 in sera [2, 8] | level of IgG2a in sera [2, 8] | level of IgG2b in sera [2, 8] | level of IgG1 when the dose of Agrippal combined to the adjuvant was increased [2, 9] | level of IgG2a when the dose of Agrippal combined to the adjuvant was increased [2, 9] | level of IgG2b when the dose of Agrippal combined to the adjuvant was increased [2, 9] | IHA titers as compared with the Agrippal vaccine alone [1, 10] | IHA titers as compared with the Agrippal vaccine alone [1, 11] | level of IgG1 in sera [2, 12] | level of IgG2b in sera [2, 12] | level of IgG1 when the dose of Agrippal combined to the adjuvant was increased [2, 12] | level of IgG2b when the dose of Agrippal combined to the adjuvant was increased [2, 12] | IHA titers induced by Fluarix vaccination against A/Brisbane/10/2007 [3] | IHA titers induced by Fluarix vaccination against A/Brisbane/59/2007 [4] | IHA titers induced by Fluarix vaccination against B/Florida/4/2006 [5] | IHA titers as compared with the Agrippal vaccine alone ([1]; single injection day 0 of 4 or 8.9 μg Agrippal + 1 μg adjuvant, sera day 21 (Example 12)) | activation of iNKT (percentage of Vβ11/Vα24+ cells amplified) [6] | activation of iNKT (percentage of Vβ11/Vα24+ cells amplified) [7]
1 | CCCCCCCCCCCCCCCCCCCCCCCC(=O)N[C@@H](COC1OC(CNC(C)=O)C(O)C(O)C1O)[C@H](O)[C@H](O)CCCCCCCCCCCCCC (stereo partly shown) [PBS-96] | same results |  |  |  |  |  |  |  |  |  |  |  |  |  |  |  |  |  | 
2 | CCCCCCCCCCCCCCCCCCCCCCCCCC(=O)N[C@@H](COC1OC(CNC(C)=O)C(O)C(O)C1O)[C@H](O)[C@H](O)CCCCCCCCCCCCCC (stereo partly shown) [PBS-14] | same results | increases | increases | increases | not significantly further increased | not significantly further increased | not significantly further increased | increased IHA titers | increased IHA titers |  |  |  |  |  |  |  |  |  | 
3 | CCCCCCCC/C=C\CCCCCCCCCCCCCC(=O)N[C@@H](COC1OC(CNC(C)=O)C(O)C(O)C1O)[C@H](O)[C@H](O)CCCCCCCCCCCCCC (stereo partly shown) [PBS-57] |  | increases | increases | increases | not significantly further increased | not significantly further increased | not significantly further increased | increased IHA titers | increased IHA titers | increases | increases | not significantly further increased | not significantly further increased | significantly enhanced | enhanced but to a less significant level | significantly enhanced | increased IHA titers | stronger activation of iNKT compared to α-GalCer | stronger activation of iNKT compared to α-GalCer
